In this test the target is T1, human FFAR1 (GPR40) (Homo sapiens, UniProt O14842).
T1 construct: Flag; expressed in transfected cells; host or cells: HEK293T
The experiment in a line: NFAT-RE-based reporter gene activity assay (Dual-Glo luciferase) for GPR40 agonistic activity in co-transfected HEK293T cells. The format is cell-based. As to conditions: 4-hour treatment; for Efficacy (%): class symbols. The method in brief:
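Agonism read as NFAT-RE-driven firefly luciferase over Renilla control (Dual-Glo) after 4 h compound exposure, top concentration 1 µM, 10 half-log steps.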
In general terms: In a reporter assay the amount or activity of a reporter protein is the signal.

Consider 31 compounds from patent publication EP4682145A1, “BENZOHETEROCYCLIC COMPOUND, AND PREPARATION METHOD THEREFOR AND USE THEREOF” (Cascade Pharmaceuticals, Inc., priority 2023, dated 2024).

Molecules are shown by their SMILES.

T1 sequence (O14842 whole entry): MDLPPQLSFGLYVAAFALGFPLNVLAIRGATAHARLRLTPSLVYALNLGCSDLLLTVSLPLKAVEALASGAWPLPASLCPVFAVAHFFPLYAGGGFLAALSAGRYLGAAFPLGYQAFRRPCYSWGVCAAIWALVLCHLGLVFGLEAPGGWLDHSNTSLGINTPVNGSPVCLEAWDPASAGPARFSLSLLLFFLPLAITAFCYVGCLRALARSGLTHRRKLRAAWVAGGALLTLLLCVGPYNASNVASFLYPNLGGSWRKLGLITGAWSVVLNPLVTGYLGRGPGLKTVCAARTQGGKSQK

A word on the EC50: it is the concentration that produces a half-maximal response. With `COc1ccc(F)c(N2CCC(c3oc4cc(C(CC(=O)O)C5CC5)ccc4c3C(=O)Nc3cccc(C(C)(C)C)c3)CC2)c1` (centres unmarked) [Compound 316], the 50% effective concentration (EC50) was in the range of 100 to 500 nM and the “Efficacy (%)” value is “†† (150 ≥ Efficacy (%) > 100)”.

Regarding `CCC(C)(C)c1nnc(-c2c(C3CCN(c4cccc(OC)c4)CC3)oc3cc(C(CC(=O)O)C4CC4)ccc23)o1` (centres unmarked) [Compound 128], the EC50 lay within 10 to 100 nM and the “Efficacy (%)” value is reported as “†† (150 ≥ Efficacy (%) > 100)”.

As for `COc1cccc(N2CCC(c3oc4cc([C@@H](CC(=O)O)C5CC5)ccc4c3-c3cccc(NC(C)C)c3)CC2)c1` [Compound 34], the EC50 lay in the range of 10 to 100 nM and the “Efficacy (%)” value is listed as “†† (150 ≥ Efficacy (%) > 100)”.

As for `COc1cccc(N2CCC(c3oc4cc([C@@H](CC(=O)O)C5CC5)ccc4c3CN(C(=O)C(C)(C)C)c3cccc(Cl)c3)CC2)c1` [Compound 448], the 50% effective concentration (EC50) was in the range of 100 to 500 nM and the “Efficacy (%)” value is “†† (150 ≥ Efficacy (%) > 100)”.

`COc1cccc(N2CCC(c3oc4cc([C@@H](CC(=O)O)C5CC5)ccc4c3C3OCC(C)(C)CO3)CC2)c1` [Compound 399]: the EC50 was in the range of 100 to 500 nM and the “Efficacy (%)” value is listed as “†† (150 ≥ Efficacy (%) > 100)”.

In the case of `COc1ccc(F)c(N2CCC(c3oc4cc(C(CC(=O)O)C5CC5)ccc4c3CC(C)OC)CC2)c1` (centres unmarked) [Compound 394], the EC50 was > 500 nM and the “Efficacy (%)” value is on record as “†† (150 ≥ Efficacy (%) > 100)”.

As to `COc1ccc(F)c(N2CCC(c3oc4cc(C(CC(=O)O)C5CC5)ccc4c3C(=O)Nc3ccc(C(C)(C)C)cc3)CC2)c1` (centres unmarked) [Compound 315], the EC50 lay in the range of 100 to 500 nM and the “Efficacy (%)” value is “†† (150 ≥ Efficacy (%) > 100)”.

For the compound `COc1cccc(N2CCC(c3oc4cc([C@@H](CC(=O)O)C5CC5)ccc4c3-c3nc4ccccc4s3)CC2)c1` [Compound 152], the EC50 is 100 to 500 nM and the “Efficacy (%)” value is recorded as “†† (150 ≥ Efficacy (%) > 100)”.

For the compound `COc1cccc(N2CCC(c3oc4cc(C(CC(=O)O)C5CC5)ccc4c3-c3nnc(C(C)(C)C)s3)CC2)c1` (centres unmarked) [Compound 118], the 50% effective concentration (EC50) was 10 to 100 nM and the “Efficacy (%)” value is listed as “†† (150 ≥ Efficacy (%) > 100)”.

With `COc1cccc(N2CCC(c3oc4cc([C@@H](CC(=O)O)C5CC5)ccc4c3CN(CC(C)(C)C)c3cccc(Cl)c3)CC2)c1` [Compound 447], the EC50 lay within 100 to 500 nM and the “Efficacy (%)” value was “†† (150 ≥ Efficacy (%) > 100)”.

In the case of `COc1ccc(F)c(N2CCC(c3oc4cc(C(CC(=O)O)C5CC5)ccc4c3-c3cccc(C(F)(F)F)c3)CC2)c1` (centres unmarked) [Compound 172], the concentration for a half-maximal effect (EC50) lay within 100 to 500 nM and the “Efficacy (%)” value is “† (100 ≥ Efficacy (%) > 50)”.

`COc1cccc(N2CCC(c3oc4cc([C@@H](CC(=O)O)C5CC5)ccc4c3C(=O)Nc3ccccc3Cl)CC2)c1F` [Compound 322]: the EC50 is ≤ 10 nM and the “Efficacy (%)” value is listed as “†† (150 ≥ Efficacy (%) > 100)”.

`COc1ccc(F)c(N2CCC(c3oc4cc(C(CC(=O)O)C5CC5)ccc4c3C(=O)NC3CC3)CC2)c1` (centres unmarked) [Compound 308]: the EC50 was > 500 nM and the “Efficacy (%)” value is on record as “†† (150 ≥ Efficacy (%) > 100)”.

Turning to `COc1cccc(N2CCC(c3oc4cc([C@@H](CC(=O)O)C5CC5)ccc4c3-c3ccc4cccc(F)c4n3)CC2)c1` [Compound 155], the EC50 is 10 to 100 nM and the “Efficacy (%)” value was “††† (Efficacy (%) > 150)”.

For `COc1cccc(N2CCC(c3oc4cc([C@@H](CC(=O)O)C5CC5)ccc4c3C(=O)Nc3cc(OC)ccc3Cl)CC2)c1` [Compound 268], the concentration giving a half-maximal response (EC50) is ≤ 10 nM and the “Efficacy (%)” value is given as “†† (150 ≥ Efficacy (%) > 100)”.

As for `COc1ccc(F)c(N2CCC(c3oc4cc(C(CC(=O)O)C5CC5)ccc4c3-c3cccc(C#N)c3)CC2)c1` (centres unmarked) [Compound 174], the half-maximal effective concentration (EC50) was 100 to 500 nM and the “Efficacy (%)” value is listed as “†† (150 ≥ Efficacy (%) > 100)”.

Regarding `Cc1ccccc1NC(=O)c1c(C2CCN(c3ccc4c(c3)OCO4)CC2)oc2cc([C@@H](CC(=O)O)C3CC3)ccc12` [Compound 330], the concentration giving a half-maximal response (EC50) is 10 to 100 nM and the “Efficacy (%)” value is “†† (150 ≥ Efficacy (%) > 100)”.

Consider `COc1cccc(N2CCC(c3oc4cc(C(CC(=O)O)C5CC5)ccc4c3C(=O)NC34CC5CC(CC(C)(C5)C3)C4)CC2)c1` (centres unmarked) [Compound 353], for which the EC50 lay within 100 to 500 nM and the “Efficacy (%)” value was “††† (Efficacy (%) > 150)”.

As to `COc1cccc(N2CCC(c3oc4cc(C(CC(=O)O)C5CC5)ccc4c3C(=O)Nc3ccccc3C#N)CC2)c1` (centres unmarked) [Compound 236], the EC50 is 10 to 100 nM and the “Efficacy (%)” value is “††† (Efficacy (%) > 150)”.

Take `COc1cccc(N2CCC(c3oc4cc(C(CC(=O)O)C5CC5)ccc4c3C(=O)N3CCCC3C)CC2)c1` (centres unmarked) [Compound 359]: the EC50 was 100 to 500 nM and the “Efficacy (%)” value was “† (100 ≥ Efficacy (%) > 50)”.

As for `COc1ccc(F)c(N2CCC(c3oc4cc(C(CC(=O)O)C5CC5)ccc4c3C3=CCCCC3)CC2)c1` (centres unmarked) [Compound 379], the EC50 fell in the range of 100 to 500 nM and the “Efficacy (%)” value is reported as “†† (150 ≥ Efficacy (%) > 100)”.

`COc1ccc(-c2c(C3CCN(c4cc(OC)ccc4F)CC3)oc3cc([C@@H](CC(=O)O)C4CC4)ccc23)cc1` [Compound 179]: the concentration for a half-maximal effect (EC50) lay in the range of 100 to 500 nM and the “Efficacy (%)” value was “††† (Efficacy (%) > 150)”.

For `COc1ccc(F)c(N2CCC(c3oc4cc([C@@H](CC(=O)O)C5CC5)ccc4c3C(=O)Nc3cc(F)ccc3Cl)CC2)c1` [Compound 341], the EC50 was ≤ 10 nM and the “Efficacy (%)” value is recorded as “†† (150 ≥ Efficacy (%) > 100)”.

In the case of `COc1ccccc1C(C)N1CCC(c2oc3cc(C(CC(=O)O)C4CC4)ccc3c2C(=O)Nc2ccccc2F)CC1` (centres unmarked) [Compound 328], the EC50 was > 500 nM and the “Efficacy (%)” value is listed as “†† (150 ≥ Efficacy (%) > 100)”.

Take `COc1cccc(N2CCC(c3oc4cc([C@@H](CC(=O)O)C5CC5)ccc4c3-c3nc4ccccn4n3)CC2)c1` [Compound 153]: the EC50 was 100 to 500 nM and the “Efficacy (%)” value is recorded as “††† (Efficacy (%) > 150)”.

With `COc1ccc(F)c(N2CCC(c3oc4cc(C(CC(=O)O)C5CC5)ccc4c3-c3cccc(C)c3)CC2)c1` (centres unmarked) [Compound 157], the 50% effective concentration (EC50) lay in the range of 100 to 500 nM and the “Efficacy (%)” value is “††† (Efficacy (%) > 150)”.

`COc1cccc(N2CCC(c3oc4cc([C@@H](CC(=O)O)C5CC5)ccc4c3C(=O)Nc3cc(C(F)(F)F)ccc3Cl)CC2)c1` [Compound 275]: the EC50 was in the range of 10 to 100 nM and the “Efficacy (%)” value was “††† (Efficacy (%) > 150)”.

As to `O=C(O)C[C@H](c1ccc2c(C(=O)Nc3cc(F)ccc3Cl)c(C3CCN(c4ccc5c(c4)OCO5)CC3)oc2c1)C1CC1` [Compound 333], the EC50 was ≤ 10 nM and the “Efficacy (%)” value is reported as “†† (150 ≥ Efficacy (%) > 100)”.

In the case of `COc1ccc(F)c(N2CCC(c3oc4cc(C(CC(=O)O)C5CC5)ccc4c3C(=O)NCC(C)(C)C)CC2)c1` (centres unmarked) [Compound 306], the EC50 was in the range of 100 to 500 nM and the “Efficacy (%)” value is “†† (150 ≥ Efficacy (%) > 100)”.

For `CCOc1cccc(N2CCC(c3oc4cc(C(CC(=O)O)C5CC5)ccc4c3-c3ccc(C(C)(C)C)cc3)CC2)c1` (centres unmarked) [Compound 15], the EC50 lay in the range of 100 to 500 nM and the “Efficacy (%)” value is listed as “††† (Efficacy (%) > 150)”.

As for `COc1cccc(N2CCC(c3oc4cc([C@@H](CC(=O)O)C5CC5)ccc4c3C(C)N(C)CC(C)(C)C)CC2)c1` (some centres unmarked) [Compound 439], the concentration giving a half-maximal response (EC50) lay in the range of 100 to 500 nM and the “Efficacy (%)” value was “†† (150 ≥ Efficacy (%) > 100)”.
